From patent US20250129021A1, “SMALL MOLECULE PROTEIN SYNTHESIS MODULATORS” (Interdict Bio, Inc., priority 2023, published 2025)

How the values were obtained:
Format in all cases: biochemical
MYC = assay: In vitro transcription-translation (IVTT) assay, MYC reporter; conditions: IVTT assay, HeLa S3 lysate, MYC reporter, normalized sfGFP/mCherry ratio; half-log dilutions 30 μM-0.1 μM, 2 hrs at 30° C.
How it was run: (§1)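 Reporter: mCherry, P2A, then 3×FLAG-target peptide-sfGFP fusion, IRES-initiated; HeLa S3 lysate IVTT; cpd dilutions 30 μM−0.1 μM half-log in 100% DMSO (dilution-plate conc); DNA added last; 2 h, 30° C; PBS quench.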

CCND1 = assay: In vitro transcription-translation (IVTT) assay, CCND1 reporter; conditions: IVTT, HeLa S3 lysate, 2 hrs at 30° C.
How it was run: as §1

MCL-1 = assay: In vitro transcription-translation (IVTT) assay, MCL-1 reporter; conditions: IVTT, HeLa S3 lysate, 2 hrs at 30° C.; read-out: MCL1 IC50
How it was run: as §1

CCNE1 = assay: In vitro transcription-translation (IVTT) assay, CCNE1 reporter; conditions: HeLa S3 lysate, 2 hrs at 30° C.
Method: Each preparation takes 8 cell pellets (4 ml packed volume each, approximately 1.0×10^9 cells per pellet). Thaw cell pellets from −80° C. on ice for 90 mins. Lay pellets horizontally on top of the ice and rotate every 30 mins to ensure even thawing. Once thawed, add 4 mL of cold lysis buffer to each pellet, and using a serological pipet, gently pipet up and down to break up clumps. Incubate resuspended cells in ice for an additional 30 mins (plunged into ice). During 30 min incubation, rinse and RNase-zap (Ambion) glass dounces (use loose pestle “A”), gently dry and place on ice until needed. Prepare RNase-free Eppendorf tubes for spinning and for batch storage. Add batch labels to 1.5-1.7 mL RNase-free microcentrifuge tubes (labeling scheme below). Each batch will have an extra 1.5-1.7 mL RNase-free microcentrifuge tube for 40 μL of lysate, label the top of this tube (labeling scheme below). After 30 min incubation, transfer all 8 mL of cell pellet to dounce. Cell lysis is complete after douncing 100 times. Aliquot cell lysis into 1.5-1.7 mL temporary-microcentrifuge tubes. Place tubes in centrifuge with “fins” out, and spin at 1,200×g for 5 mins. After the first spin use a 1 mL pipet to resuspend each tube and repeat spin. This acts as an additional lysis step, is more vigorous and increases lysate yield. During second spin get liquid N2 and a fresh conical tube on ice. After spin is complete, transfer supernatant (lysate) from microcentrifuge tubes into the 50 mL conical tube and keep on ice. Repeat steps 10-14 for all other cell pellets until completed. Once all cell lysate has been transferred to the 50 mL conical tube pipet to mix so the solution is homogenous. Transfer 1 mL of lysate into batch-labeled microcentrifuge tubes and flash freeze in liquid nitrogen. Be sure to pipet up and down to mix throughout transfer step. Place all tubes in the […] for long-term storage.
In vitro transcription-translation assay setup: Each assay includes a master mix containing lysate and shared components, a 96-well plate containing compound titrations for testing, a 96-well DNA plate with reporter constructs to be tested, 96-well skirted PCR plates, and 96-well flat-bottom, black, fluorescent assay plates. Reaction materials setup: (A) Master mix—15 mL conical tube (3 mL of HeLa S3 Lysate described above; 0.6 mL of ThermoFisher Accessory Proteins (#88882); 1.2 ml of ThermoFisher Reaction Mix (#88882); 0.54 mL of nuclease-free Water); (B) 96-Well Master Mix+Compound Plate (Half-log dilutions (30 μM−0.1 μM) of 4 compounds of interest are prepared in 100% DMSO); 96-Well DNA Plate (Five DNA constructs are plated into single columns within the plate. Row 1 of the column contains nuclease free H2O, all other wells contain 110 ng/μL plasmid DNA). Reactions are started by mixing 155 μL of master mix and 3.5 μL of compound serial dilutions, then 9.1 μL of master mix+compound mixture is aliquoted across 5 96-well plates. Reactions begin with final addition of 2 μL of DNA for a 11.1 μL reaction volume in each well. The entire plate is sealed, and incubated for 2 hrs at 30° C. After 2 hrs, quench the assay using 45 μL of PBS, and transfer 50 μL to a flat-bottom black microplate Quantify the sfGFP and mCherry signals from each well on each plate, taking 3 reads of each plate, and perform data analysis below.
In vitro transcription-translation assay data analysis: Each plate is read three times in channels for both sfGFP and mCherry signals. The average signal across these 3 reads is then calculated for further analysis. Control wells containing no DNA reporter are subtracted from reporter wells in the same column to remove auto-fluorescence of the lysate. Then, the ratio of sfGFP/mCherry is calculated per well, and these ratios are averaged across the triplicate experiments on the same plate. Finally, the ratio of each titration concentration is normalized to the no drug control to create the normalized stalling metric. […]

CCNTB1 = assay: In vitro transcription-translation (IVTT) assay, CCNTB1 reporter; conditions: HeLa S3 lysate, 2 hrs at 30° C.
How it was run: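 IC50 fitted from the sfGFP/mCherry fluorescence ratio, normalized to no-drug control after no-DNA background subtraction. Reactions ran 2 h at 30° C in HeLa S3 cell lysate with reporter plasmid DNA and half-log compound titrations (30 μM−0.1 μM, in DMSO).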

## O=C(NCc1cnoc1)O[C@@H]1[C@@H](O)CN[C@@H]1Cc1ccc(Cl)cc1 [V188289, (2R,3S,4S)-2-[(4-chlorophenyl)methyl]-4-hydroxypyrrolidin-3-yl N-(1,2-oxazol-4-ylmethyl)carbamate]
MYC
  IC50: < 10 µM
CCND1
  IC50: < 10 µM
MCL-1
  IC50: < 10 µM
CCNE1
  IC50: < 10 µM
CCNTB1
  IC50: < 10 µM

## COc1ccc(C[C@H]2NC[C@H](O)[C@H]2OC(=O)NCc2ccnc(N3CCC3)c2)cc1 [V188225, (2R,3S,4S)-4-hydroxy-2-[(4-methoxyphenyl)methyl]pyrrolidin-3-yl N-{[2-(azetidin-1-yl)pyridin-4-yl]methyl}carbamate]
MYC
  IC50: < 10 µM
CCND1
  IC50: < 10 µM
MCL-1
  IC50: < 10 µM
CCNE1
  IC50: < 10 µM
CCNTB1
  IC50: < 10 µM

## O=C(NCc1ccc(Cl)cc1)O[C@@H]1[C@@H](O)CN[C@@H]1Cc1ccc(Cl)cc1 [V188273, (2R,3S,4S)-2-[(4-chlorophenyl)methyl]-4-hydroxypyrrolidin-3-yl N-[(4-chlorophenyl)methyl]carbamate]
MYC
  IC50: > 30 µM
CCND1
  IC50: > 30 µM
CCNE1
  IC50: 20 to 30 µM
CCNTB1
  IC50: 10 to 20 µM

## COc1ccc(C[C@H]2NC[C@H](O)[C@H]2OC(=O)NCCn2ccnc2[N+](=O)[O-])cc1 [V188085, (2R,3S,4S)-4-hydroxy-2-[(4-methoxyphenyl)methyl]pyrrolidin-3-yl N-[2-(2-nitroimidazol-1-yl)ethyl]carbamate]
MYC
  IC50: 10 to 20 µM
CCND1
  IC50: 20 to 30 µM
CCNE1
  IC50: < 10 µM
CCNTB1
  IC50: < 10 µM

## COc1ccc(C[C@H]2NC[C@H](O)[C@H]2OC(=O)NCCc2ccc(S(=O)(=O)F)cc2)cc1 [V188175, (2R,3S,4S)-4-hydroxy-2-[(4-methoxyphenyl)methyl]pyrrolidin-3-yl N-{2-[4-(fluorosulfonyl)phenyl]ethyl}carbamate]
MYC
  IC50: 10 to 20 µM
CCND1
  IC50: > 30 µM
CCNE1
  IC50: 10 to 20 µM
CCNTB1
  IC50: < 10 µM

## O=C(NCC1CC1)O[C@@H]1[C@@H](O)CN[C@@H]1Cc1ccc(Cl)cc1 [V188275, (2R,3S,4S)-2-[(4-chlorophenyl)methyl]-4-hydroxypyrrolidin-3-yl N-(cyclopropylmethyl)carbamate]
MYC
  IC50: < 10 µM
CCND1
  IC50: 10 to 20 µM
CCNE1
  IC50: < 10 µM
CCNTB1
  IC50: < 10 µM

## COc1ccc(C[C@H]2NC[C@H](O)[C@H]2OC(=O)NCCC23CCCN2CCC3)cc1 [V188135, (2R,3S,4S)-4-hydroxy-2-[(4-methoxyphenyl)methyl]pyrrolidin-3-yl N-[2-(hexahydropyrrolizin-7a-yl)ethyl]carbamate]
MYC
  IC50: 10 to 20 µM
CCND1
  IC50: 20 to 30 µM
CCNE1
  IC50: 20 to 30 µM
CCNTB1
  IC50: 10 to 20 µM

## O=C(NCc1cc(F)cc(F)c1)O[C@@H]1[C@@H](O)CN[C@@H]1Cc1ccc(Cl)cc1 [V188272, (2R,3S,4S)-2-[(4-chlorophenyl)methyl]-4-hydroxypyrrolidin-3-yl N-[(3,5-difluorophenyl)methyl]carbamate]
MYC
  IC50: 10 to 20 µM
CCND1
  IC50: 20 to 30 µM
CCNE1
  IC50: < 10 µM
CCNTB1
  IC50: < 10 µM

## COc1ccc(C[C@H]2NC[C@H](O)[C@H]2OC(=O)NC[C@H]2CCN(C)C2)cc1 [V188108, (2R,3S,4S)-4-hydroxy-2-[(4-methoxyphenyl)methyl]pyrrolidin-3-yl N-{[(3R)-1-methylpyrrolidin-3-yl]methyl}carbamate]
MYC
  IC50: > 30 µM
CCND1
  IC50: > 30 µM
CCNE1
  IC50: > 30 µM
CCNTB1
  IC50: 20 to 30 µM

## CNC(=O)c1ccc(CNC(=O)O[C@@H]2[C@@H](O)CN[C@@H]2Cc2ccc(OC)cc2)cc1 [V188305, (2R,3S,4S)-4-hydroxy-2-[(4-methoxyphenyl)methyl]pyrrolidin-3-yl N-{[4-(methylcarbamoyl)phenyl]methyl}carbamate]
MYC
  IC50: < 10 µM
CCND1
  IC50: < 10 µM
CCNE1
  IC50: < 10 µM
CCNTB1
  IC50: < 10 µM

## COc1ccc(C[C@H]2NC[C@H](O)[C@H]2OC(=O)NCc2ccnc(C(F)(F)F)c2)cc1 [V188050, (2R,3S,4S)-4-hydroxy-2-[(4-methoxyphenyl)methyl]pyrrolidin-3-yl N-{[2-(trifluoromethyl)pyridin-4-yl]methyl}carbamate]
MYC
  IC50: < 10 µM
CCND1
  IC50: < 10 µM
CCNE1
  IC50: < 10 µM
CCNTB1
  IC50: < 10 µM

## COc1ccc(C[C@H]2NC[C@H](O)[C@H]2OC(=O)NCc2ccc(=O)[nH]c2)cc1 [V188206, (2R,3S,4S)-4-hydroxy-2-[(4-methoxyphenyl)methyl]pyrrolidin-3-yl N-[(6-oxo-1H-pyridin-3-yl)methyl]carbamate]
MYC
  IC50: < 10 µM
CCND1
  IC50: < 10 µM
CCNE1
  IC50: < 10 µM
CCNTB1
  IC50: < 10 µM

## O=C(NCC1(F)CC1)O[C@@H]1[C@@H](O)CN[C@@H]1Cc1ccc(Cl)cc1 [V188269, (2R,3S,4S)-2-[(4-chlorophenyl)methyl]-4-hydroxypyrrolidin-3-yl N-[(1-fluorocyclopropyl)methyl]carbamate]
MYC
  IC50: > 30 µM
CCND1
  IC50: > 30 µM
CCNE1
  IC50: 10 to 20 µM
CCNTB1
  IC50: < 10 µM

## COc1ccc(C[C@H]2NC[C@H](O)[C@H]2OC(=O)NCCO[C@@H]2CCNC2)cc1 [V188071, (2R,3S,4S)-4-hydroxy-2-[(4-methoxyphenyl)methyl]pyrrolidin-3-yl N-{2-[(3R)-pyrrolidin-3-yloxy]ethyl}carbamate]
MYC
  IC50: 10 to 20 µM
CCND1
  IC50: 10 to 20 µM
CCNE1
  IC50: < 10 µM
CCNTB1
  IC50: < 10 µM

## COc1ccc(C[C@H]2NC[C@H](O)[C@H]2OC(=O)NC[C@H]2CCN(c3nccs3)C2)cc1 [V188170, (2R,3S,4S)-4-hydroxy-2-[(4-methoxyphenyl)methyl]pyrrolidin-3-yl N-{[(3R)-1-(1,3-thiazol-2-yl)pyrrolidin-3-yl]methyl}carbamate]
MYC
  IC50: 10 to 20 µM
CCND1
  IC50: < 10 µM
CCNE1
  IC50: < 10 µM
CCNTB1
  IC50: < 10 µM

## O=C(NCc1ccc(F)cc1)O[C@@H]1[C@@H](O)CN[C@@H]1Cc1ccc(Cl)cc1 [V188271, (2R,3S,4S)-2-[(4-chlorophenyl)methyl]-4-hydroxypyrrolidin-3-yl N-[(4-fluorophenyl)methyl]carbamate]
MYC
  IC50: 10 to 20 µM
CCND1
  IC50: 10 to 20 µM
CCNE1
  IC50: < 10 µM
CCNTB1
  IC50: < 10 µM

## O=C(NCc1cccc(F)c1)O[C@@H]1[C@@H](O)CN[C@@H]1Cc1ccc(Cl)cc1 [V188270, (2R,3S,4S)-2-[(4-chlorophenyl)methyl]-4-hydroxypyrrolidin-3-yl N-[(3-fluorophenyl)methyl]carbamate]
MYC
  IC50: < 10 µM
CCND1
  IC50: 10 to 20 µM
CCNE1
  IC50: < 10 µM
CCNTB1
  IC50: < 10 µM

## COc1ccc(C[C@H]2NC[C@H](O)[C@H]2OC(=O)NCc2ccc(S(N)(=O)=O)cc2)cc1 [V188304, (2R,3S,4S)-4-hydroxy-2-[(4-methoxyphenyl)methyl]pyrrolidin-3-yl N-[(4-sulfamoylphenyl)methyl]carbamate]
MYC
  IC50: < 10 µM
CCND1
  IC50: < 10 µM
CCNE1
  IC50: < 10 µM
CCNTB1
  IC50: < 10 µM
